Reference: paper PMC11378028 (RSC Advances, 2024)
≈ marks a conversion by molar mass, not a printed value. Each block holds one molecule with its values, some of them ahead of it.

Experiments:
K. aerogenes ATCC 13408 = experiment: MIC, broth microdilution; format: cell-based; details: Klebsiella aerogenes, ATCC13408, read-out: MIC K. aerogenes ATCC 13408
E. coli ATCC 25922 = experiment: MIC, broth microdilution; format: cell-based; details: Escherichia coli, ATCC25922, read-out: MIC E. coli ATCC 25922
[1] = system: K. pneumoniae ATCC 700603; experiment: MIC, broth microdilution; format: cell-based; details: Klebsiella pneumoniae, ATCC700603, read-out: MIC K. pneumoniae ATCC 700603
A. baumannii ATCC 19606 = experiment: MIC, broth microdilution; format: cell-based; details: Acinetobacter baumannii, ATCC19606, read-out: MIC A. baumannii ATCC 19606
E. coli DNA gyrase = E. coli DNA gyrase (Escherichia coli, UniProt P0AES6); experiment: DNA gyrase supercoiling plate assay; format: biochemical; details: for remaining activity at 0.1 µM / remaining activity at 1 µM: read-out: RA (residual activity) E. coli gyrase; for IC50: IC50 E. coli gyrase, supercoiling assay
[2] = target: human DNA topoisomerase IIα (Homo sapiens, UniProt P11388); experiment: human DNA topoisomerase IIα inhibition; format: biochemical; details: read-out: RA (residual activity) Human topo IIα
human DNA topoisomerase IIα, sequence (P11388 whole entry): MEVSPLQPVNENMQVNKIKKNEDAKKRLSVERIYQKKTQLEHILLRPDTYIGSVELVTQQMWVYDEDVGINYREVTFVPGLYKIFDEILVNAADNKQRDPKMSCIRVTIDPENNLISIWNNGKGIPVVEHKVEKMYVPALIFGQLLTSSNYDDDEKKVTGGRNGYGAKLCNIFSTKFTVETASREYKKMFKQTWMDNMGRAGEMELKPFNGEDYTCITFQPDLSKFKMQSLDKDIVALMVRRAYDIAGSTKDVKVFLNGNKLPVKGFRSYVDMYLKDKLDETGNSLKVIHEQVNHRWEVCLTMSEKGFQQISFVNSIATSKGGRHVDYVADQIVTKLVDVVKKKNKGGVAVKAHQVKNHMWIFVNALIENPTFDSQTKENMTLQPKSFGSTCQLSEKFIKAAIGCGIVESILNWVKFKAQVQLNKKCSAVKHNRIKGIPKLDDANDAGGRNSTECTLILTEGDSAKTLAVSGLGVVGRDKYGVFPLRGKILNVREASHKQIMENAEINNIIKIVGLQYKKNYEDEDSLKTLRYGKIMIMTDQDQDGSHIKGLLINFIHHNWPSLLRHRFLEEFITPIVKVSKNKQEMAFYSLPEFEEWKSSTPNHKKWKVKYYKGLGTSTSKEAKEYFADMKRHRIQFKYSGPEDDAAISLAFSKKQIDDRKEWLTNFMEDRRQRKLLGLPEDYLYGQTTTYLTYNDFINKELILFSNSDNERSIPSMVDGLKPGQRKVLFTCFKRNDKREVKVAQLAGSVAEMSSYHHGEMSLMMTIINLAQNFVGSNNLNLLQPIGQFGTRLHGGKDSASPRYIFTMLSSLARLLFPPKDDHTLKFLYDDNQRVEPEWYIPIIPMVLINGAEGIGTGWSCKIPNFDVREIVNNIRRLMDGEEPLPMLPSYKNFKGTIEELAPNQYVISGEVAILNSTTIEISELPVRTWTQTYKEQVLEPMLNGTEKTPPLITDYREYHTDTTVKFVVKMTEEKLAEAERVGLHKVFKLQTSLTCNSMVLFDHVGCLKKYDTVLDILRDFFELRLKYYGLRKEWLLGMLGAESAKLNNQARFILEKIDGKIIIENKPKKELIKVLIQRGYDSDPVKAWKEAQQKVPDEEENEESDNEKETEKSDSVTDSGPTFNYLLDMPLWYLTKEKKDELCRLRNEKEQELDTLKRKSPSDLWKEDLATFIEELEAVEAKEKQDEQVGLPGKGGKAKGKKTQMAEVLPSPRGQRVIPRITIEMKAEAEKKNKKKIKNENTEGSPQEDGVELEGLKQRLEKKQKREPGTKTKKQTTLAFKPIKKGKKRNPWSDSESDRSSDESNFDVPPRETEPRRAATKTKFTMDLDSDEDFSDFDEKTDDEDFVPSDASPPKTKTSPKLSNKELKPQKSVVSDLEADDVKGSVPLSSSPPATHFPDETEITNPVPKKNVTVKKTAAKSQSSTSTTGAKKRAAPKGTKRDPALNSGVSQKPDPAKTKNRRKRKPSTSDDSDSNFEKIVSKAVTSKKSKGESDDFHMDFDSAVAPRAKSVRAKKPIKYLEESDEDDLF

P. aeruginosa ATCC 27853 = experiment: MIC, broth microdilution; format: cell-based; details: Pseudomonas aeruginosa, ATCC27853, read-out: MIC P. aeruginosa ATCC 27853
E. coli topoisomerase IV = E. coli topoisomerase IV (Escherichia coli, UniProt P20083); experiment: topoisomerase IV relaxation plate assay; format: biochemical
E. coli topoisomerase IV, sequence (P20083 whole entry): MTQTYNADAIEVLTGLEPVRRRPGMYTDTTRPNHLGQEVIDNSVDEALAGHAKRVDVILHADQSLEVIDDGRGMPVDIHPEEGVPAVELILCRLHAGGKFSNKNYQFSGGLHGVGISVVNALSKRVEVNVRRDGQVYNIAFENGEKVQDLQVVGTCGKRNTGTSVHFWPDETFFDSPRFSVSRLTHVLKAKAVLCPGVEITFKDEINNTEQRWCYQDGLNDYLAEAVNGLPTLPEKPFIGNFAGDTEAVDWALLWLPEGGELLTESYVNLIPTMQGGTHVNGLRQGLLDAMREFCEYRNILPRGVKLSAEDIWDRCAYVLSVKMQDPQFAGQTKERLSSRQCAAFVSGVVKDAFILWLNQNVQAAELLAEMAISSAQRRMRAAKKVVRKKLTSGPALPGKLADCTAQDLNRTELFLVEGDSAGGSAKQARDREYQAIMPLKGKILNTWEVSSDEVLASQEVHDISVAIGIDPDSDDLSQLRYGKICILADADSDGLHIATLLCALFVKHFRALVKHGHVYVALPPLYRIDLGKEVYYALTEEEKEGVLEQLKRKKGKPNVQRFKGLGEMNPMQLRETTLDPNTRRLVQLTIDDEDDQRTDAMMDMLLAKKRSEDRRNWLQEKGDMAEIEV
E. coli topoisomerase IV, sequence (P0AFI2 whole entry partner): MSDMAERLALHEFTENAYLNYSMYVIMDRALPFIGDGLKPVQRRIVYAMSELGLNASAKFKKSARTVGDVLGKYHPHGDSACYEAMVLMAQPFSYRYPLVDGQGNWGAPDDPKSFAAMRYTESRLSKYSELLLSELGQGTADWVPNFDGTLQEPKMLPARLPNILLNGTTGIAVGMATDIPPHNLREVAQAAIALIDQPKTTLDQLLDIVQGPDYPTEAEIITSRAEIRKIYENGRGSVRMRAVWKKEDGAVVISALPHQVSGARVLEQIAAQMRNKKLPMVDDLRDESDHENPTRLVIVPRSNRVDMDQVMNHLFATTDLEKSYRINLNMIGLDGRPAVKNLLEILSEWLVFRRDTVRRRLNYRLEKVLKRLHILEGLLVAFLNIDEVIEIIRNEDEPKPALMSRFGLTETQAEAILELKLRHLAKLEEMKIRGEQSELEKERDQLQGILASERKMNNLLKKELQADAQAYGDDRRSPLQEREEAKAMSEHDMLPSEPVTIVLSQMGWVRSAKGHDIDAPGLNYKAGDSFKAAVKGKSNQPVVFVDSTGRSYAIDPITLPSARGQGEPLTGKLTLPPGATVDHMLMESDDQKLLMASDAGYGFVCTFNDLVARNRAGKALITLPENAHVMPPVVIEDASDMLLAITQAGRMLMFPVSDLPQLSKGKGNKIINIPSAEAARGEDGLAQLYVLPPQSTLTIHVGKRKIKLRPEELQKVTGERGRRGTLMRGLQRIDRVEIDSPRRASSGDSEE

S. aureus ATCC 29213 = experiment: MIC, broth microdilution; format: cell-based, Staphylococcus aureus; details: Staphylococcus aureus, ATCC29213, read-out: MIC S. aureus ATCC 29213, broth microdilution
[3] = read-out: RA (residual activity) E. coli topo IV

Molecule: Cc1[nH]c(C(=O)Nc2ccc(C(=O)O)cc2N2CCCC(CNC(=O)OC(C)(C)C)C2)c(Cl)c1Cl (stereo not drawn) [Compound 18i, 3-(3-(((tert-Butoxycarbonyl)amino)methyl)piperidin-1-yl)-4-(3,4-dichloro-5-methyl-1H-pyrrole-2-carboxamido)benzoic acid]
- MIC (K. aerogenes ATCC 13408): > 32 µg/mL
- MIC (E. coli ATCC 25922): > 32 µg/mL
- MIC [1]: > 32 µg/mL
- MIC (A. baumannii ATCC 19606): > 32 µg/mL
- remaining activity at 0.1 µM (E. coli DNA gyrase): 89%
- remaining activity at 100 µM [2]: 128%
- MIC (P. aeruginosa ATCC 27853): > 32 µg/mL

- IC50 (E. coli DNA gyrase): 235 nM
Molecule: N[C@H]1CCN(c2cc(C(=O)NCC(=O)O)ccc2NC(=O)c2cc(Br)c(Br)[nH]2)C1 [Compound 11b, (S)-1-(5-((Carboxymethyl)carbamoyl)-2-(4,5-dibromo-1H-pyrrole-2-carboxamido)phenyl)pyrrolidin-3-aminium chloride]

Molecule: CC(C)(C)OC(=O)N[C@H]1CCN(c2cc(C(=O)NCC(=O)O)ccc2NC(=O)c2cc(Br)c(Br)[nH]2)C1 [Compound 9b, (S)-(3-(3-((tert-Butoxycarbonyl)amino)pyrrolidin-1-yl)-4-(4,5-dibromo-1H-pyrrole-2-carboxamido)benzoyl)glycine]
- IC50 (E. coli DNA gyrase): 4110 nM

Molecule: Cc1[nH]c(C(=O)Nc2ccc(C(=O)O)cc2N2CCC[C@H](NC(=O)OC(C)(C)C)C2)c(Cl)c1Cl [Compound 18c, (S)-3-(3-((tert-Butoxycarbonyl)amino)piperidin-1-yl)-4-(3,4-dichloro-5-methyl-1H-pyrrole-2-carboxamido)benzoic acid]
- MIC (K. aerogenes ATCC 13408): > 32 µg/mL
- MIC (E. coli ATCC 25922): > 32 µg/mL
- MIC [1]: > 32 µg/mL
- MIC (A. baumannii ATCC 19606): > 32 µg/mL
- remaining activity at 1 µM (E. coli DNA gyrase): 67%
- MIC (P. aeruginosa ATCC 27853): > 32 µg/mL

Molecule: Cc1[nH]c(C(=O)Nc2ccc(C(=O)NCC(=O)O)cc2N2CC[C@@H](NC(=O)OC(C)(C)C)C2)c(Cl)c1Cl [Compound 8c, (R)-(3-(3-((tert-Butoxycarbonyl)amino)pyrrolidin-1-yl)-4-(3,4-dichloro-5-methyl-1H-pyrrole-2-carboxamido)benzoyl)glycine]
- IC50 (E. coli DNA gyrase): 162 nM

Molecule: CC(C)(C)OC(=O)N1CCN(c2cc(C(=O)NCC(=O)O)ccc2NC(=O)c2cc(Br)c(Br)[nH]2)CC1 [Compound 9a, (3-(4-(tert-Butoxycarbonyl)piperazin-1-yl)-4-(4,5-dibromo-1H-pyrrole-2-carboxamido)benzoyl)glycine]
- IC50 (E. coli DNA gyrase): 362 nM

- remaining activity at 1 µM (E. coli DNA gyrase): 81%
- remaining activity at 100 µM [2]: 92%
Molecule: Cc1[nH]c(C(=O)N(Cc2ccccc2)c2ccc(-c3n[nH]c(=O)o3)cc2)c(Cl)c1Cl [Compound 33, N-Benzyl-3,4-dichloro-5-methyl-N-(4-(5-oxo-4,5-dihydro-1,3,4-oxadiazol-2-yl)phenyl)-1H-pyrrole-2-carboxamide]

- IC50 (E. coli DNA gyrase): ~20 nM
- remaining activity at 10 µM [2]: 111%
Molecule: Cc1[nH]c(C(=O)Nc2ccc(C(=O)NCc3n[nH]c(=O)o3)cc2N2CCNCC2)c(Cl)c1Cl [Compound 14, 4-(2-(3,4-Dichloro-5-methyl-1H-pyrrole-2-carboxamido)-5-(((5-oxo-4,5-dihydro-1,3,4-oxadiazol-2-yl)methyl)carbamoyl)phenyl)piperazin-1-ium chloride]

Molecule: Cc1[nH]c(C(=O)Nc2ccc(C(=O)NCC(=O)O)cc2N2CC[C@H](NC(=O)OC(C)(C)C)C2)c(Cl)c1Cl [Compound 8b, (S)-(3-(3-((tert-Butoxycarbonyl)amino)pyrrolidin-1-yl)-4-(3,4-dichloro-5-methyl-1H-pyrrole-2-carboxamido)benzoyl)glycine]
- IC50 (E. coli DNA gyrase): 196 nM

- RA (residual activity) E. coli topo IV (E. coli topoisomerase IV; at 1 μM compound): 103% (1 μM)
- RA (residual activity) E. coli gyrase (E. coli DNA gyrase; at 10 μM compound): 98% (10 μM)
Molecule: 4,5-Dibromo-N-(2-morpholino-4-(5-oxo-4,5-dihydro-1,3,4-oxadiazol-2-yl)phenyl)-1H-pyrrole-2-carboxamide [Compound 27a]

- MIC (K. aerogenes ATCC 13408): > 32 µg/mL
- MIC (E. coli ATCC 25922): > 32 µg/mL
- MIC [1]: > 32 µg/mL
- MIC (A. baumannii ATCC 19606): > 32 µg/mL
- remaining activity at 0.1 µM (E. coli DNA gyrase): 90%
- MIC (S. aureus ATCC 29213): 32 µg/mL (≈ 58 µM)
- MIC (P. aeruginosa ATCC 27853): > 32 µg/mL
Molecule: Cc1[nH]c(C(=O)Nc2ccc(-c3n[nH]c(=O)o3)cc2N2CCC[C@H](NC(=O)OC(C)(C)C)C2)c(Cl)c1Cl [Compound 22c, tert-Butyl (S)-(1-(2-(3,4-dichloro-5-methyl-1H-pyrrole-2-carboxamido)-5-(5-oxo-4,5-dihydro-1,3,4-oxadiazol-2-yl)phenyl)piperidin-3-yl)carbamate]

- IC50 (E. coli DNA gyrase): ~20 nM
- remaining activity at 40 µM [2]: 112%
Molecule: Cc1[nH]c(C(=O)Nc2ccc(C(=O)NCC(=O)O)cc2N2CC[C@@H](N)C2)c(Cl)c1Cl [Compound 10c, (R)-1-(5-((Carboxymethyl)carbamoyl)-2-(3,4-dichloro-5-methyl-1H-pyrrole-2-carboxamido)phenyl)pyrrolidin-3-aminium chloride]

- remaining activity at 1 µM (E. coli topoisomerase IV; [3]): 104%
- IC50 (E. coli DNA gyrase): 59 nM
- remaining activity at 100 µM [2]: 100%
Molecule: Cc1[nH]c(C(=O)Nc2ccc(-c3n[nH]c(=O)o3)cc2N2CCN(C(=O)OC(C)(C)C)CC2)c(Cl)c1Cl [Compound 22a, tert-Butyl 4-(2-(3,4-dichloro-5-methyl-1H-pyrrole-2-carboxamido)-5-(5-oxo-4,5-dihydro-1,3,4-oxadiazol-2-yl)phenyl)piperazine-1-carboxylate]

- remaining activity at 1 µM (E. coli topoisomerase IV; [3]): 93%
- remaining activity at 10 µM [2]: 78%
Molecule: Cc1[nH]c(C(=O)Nc2ccc(C(=O)NCC(=O)O)cc2N2CCNCC2)c(Cl)c1Cl [Compound 10a, 4-(5-((Carboxymethyl)carbamoyl)-2-(3,4-dichloro-5-methyl-1H-pyrrole-2-carboxamido)phenyl)piperazin-1-ium chloride]

- remaining activity at 100 µM [2]: 97%
Molecule: Cc1[nH]c(C(=O)Nc2ccc(-c3n[nH]c(=O)o3)cc2N2CC(C)OC(C)C2)c(Cl)c1Cl (stereo not drawn) [Compound 22g, 3,4-Dichloro-N-(2-(2,6-dimethylmorpholino)-4-(5-oxo-4,5-dihydro-1,3,4-oxadiazol-2-yl)phenyl)-5-methyl-1H-pyrrole-2-carboxamide]

- IC50 (E. coli DNA gyrase): 483 nM
- MIC (S. aureus ATCC 29213): 1 µg/mL (≈ 1.68 µM)
Molecule: Cc1[nH]c(C(=O)Nc2ccc(C(=O)NCc3n[nH]c(=O)o3)cc2N2CCN(C(=O)OC(C)(C)C)CC2)c(Cl)c1Cl [Compound 13, tert-Butyl 4-(2-(3,4-dichloro-5-methyl-1H-pyrrole-2-carboxamido)-5-(((5-oxo-4,5-dihydro-1,3,4-oxadiazol-2-yl)methyl)carbamoyl)phenyl)piperazine-1-carboxylate]

- remaining activity at 10 µM (E. coli topoisomerase IV; [3]): 75%
- IC50 (E. coli DNA gyrase): 996 nM
Molecule: N[C@@H]1CCN(c2cc(C(=O)NCC(=O)O)ccc2NC(=O)c2cc(Br)c(Br)[nH]2)C1 [Compound 11c, (R)-1-(5-((Carboxymethyl)carbamoyl)-2-(4,5-dibromo-1H-pyrrole-2-carboxamido)phenyl)pyrrolidin-3-aminium chloride]

Molecule: CC(C)(C)OC(=O)N[C@@H]1CCN(c2cc(C(=O)NCC(=O)O)ccc2NC(=O)c2cc(Br)c(Br)[nH]2)C1 [Compound 9c, (R)-(3-(3-((tert-Butoxycarbonyl)amino)pyrrolidin-1-yl)-4-(4,5-dibromo-1H-pyrrole-2-carboxamido)benzoyl)glycine]
- IC50 (E. coli DNA gyrase): 5390 nM

- remaining activity at 40 µM [2]: 100%
Molecule: O=C(O)CNC(=O)c1ccc(NC(=O)c2cc(Br)c(Br)[nH]2)c(N2CCNCC2)c1 [Compound 11a, 4-(5-((Carboxymethyl)carbamoyl)-2-(4,5-dibromo-1H-pyrrole-2-carboxamido)phenyl)piperazin-1-ium chloride]
